From patent US20050130890A1, “Amyloid beta is a ligand for FPR class receptors” (priority 2001, published 2005)
Each block holds one compound with its values, some of them ahead of it.

Tests used:
[1] = system: human monocytes; assay: Ca2+ mobilization in fura-2 loaded human monocytes; format: cell-based
Excerpt: (§1) Reagents and cells. Aβ peptide (Aβ42) and the peptide with reversed sequence (Aβ42-1) were purchased from California Peptide Research (Napa, Calif.). All peptides were examined for endotoxin contamination and were negative at highest concentrations used in the study. Human peripheral blood monocytes were isolated from buffy coats (National Institutes of Health Clinical Center, Bethesda, Md.) enriched for mononuclear cells by using iso-osmotic Percoll gradient. The purity of the cell preparations was examined by morphology and was >90%. Rat basophilic leukemia cell line (RBL-2H3) transfected with epitope-tagged N-formylpeptide receptor (FPR) (designated ETFR) was a kind gift of Dr. R. Snyderman (Duke University, Durham, N.C.). cDNA cloning and establishment of FPRL1-transfected human embryonic kidney (HEK) 293 cells (FPRL1/293) were described previously (Gao J. L. & Murphy P. M. 1993 J Biol Chem 268:[…]). All the transfected cells were maintained in culture media as described (Su S. B. et al. 1999 J Exp Med 189:395-402).
(§2) Chemotaxis assays and measurement of calcium mobilization. Chemotaxis assays were performed using 48-well chemotaxis chambers (Deng X. et al. 1999 Blood 94:1165-1673). The results were expressed as the mean number (±SD) of migrated cells in three high-powered fields in three replicate samples. Chemotaxis index, which represented the fold increase in the number of cells migrated in response to chemoattractants over the cell response to control medium, also was used. Ca^+ mobilization was measured by stimulating fura-2 AM-loaded human monocytes or receptor-transfected cells with various agents (Deng X. et al. 1999 Blood 94:1165-1673; Su S. B. et al. 1999 J Exp Med 189:395-402) and recording the ratio of fluorescence at 340 and 380 nm in a luminescence spectrometer with FL WinLab program (Perkin-Elmer, Beaconsfield, UK).

[2] = biological target: mouse N-formylpeptide receptor 2 (FPR2), on transfected HEK 293 cells or endogenous on mouse neutrophils and N9 microglial cells (mouse) (UniProt O88536); assay: cell-based or functional assay
mouse N-formylpeptide receptor 2 (FPR2), on transfected HEK 293 cells or endogenous on mouse neutrophils and N9 microglial cells (mouse), sequence (O88536 whole entry): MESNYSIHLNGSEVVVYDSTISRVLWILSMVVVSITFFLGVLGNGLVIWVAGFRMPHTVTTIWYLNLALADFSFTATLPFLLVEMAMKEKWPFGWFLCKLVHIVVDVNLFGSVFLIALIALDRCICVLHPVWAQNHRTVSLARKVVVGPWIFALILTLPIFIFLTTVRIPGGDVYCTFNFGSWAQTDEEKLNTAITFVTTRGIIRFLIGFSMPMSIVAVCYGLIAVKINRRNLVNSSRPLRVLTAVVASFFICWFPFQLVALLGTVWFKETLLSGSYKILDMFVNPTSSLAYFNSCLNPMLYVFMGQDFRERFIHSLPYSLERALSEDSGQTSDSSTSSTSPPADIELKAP

[3] = system: human monocytes; assay: Chemotaxis (migration) of human monocytes, 48-well chamber; format: cell-based
Excerpt: as §1, §2

[4] = system: macrophages; assay: Congo red histochemistry of macrophages (fibril formation); format: cell-based, human
Procedure: Congo red histochemistry. Cells on chamber slides were fixed with 4% paraformaldehyde and stained with hematoxylin for 2 min at room temperature. After 20 min incubation in a saturated NaCl solution containing 80% ethanol and 0.1% NaOH, the slides were reacted for 20 min with 0.2% Congo red. Destaining and dehydration were completed by washing the slides sequentially in 95% ethanol and 100% ethanol, followed by xylene. Coverslips were applied using Permount and the slides were viewed under light microscopy.

[5] = biological target: T1, FPRL1 (Homo sapiens, UniProt P25090); assay: FPRL1 internalization in FPRL1/293 cells, fluorescence confocal microscopy; format: cell-based
T1 construct: expressed in transfected cells; host or cells: HEK 293
T1 sequence (P25090 1-351): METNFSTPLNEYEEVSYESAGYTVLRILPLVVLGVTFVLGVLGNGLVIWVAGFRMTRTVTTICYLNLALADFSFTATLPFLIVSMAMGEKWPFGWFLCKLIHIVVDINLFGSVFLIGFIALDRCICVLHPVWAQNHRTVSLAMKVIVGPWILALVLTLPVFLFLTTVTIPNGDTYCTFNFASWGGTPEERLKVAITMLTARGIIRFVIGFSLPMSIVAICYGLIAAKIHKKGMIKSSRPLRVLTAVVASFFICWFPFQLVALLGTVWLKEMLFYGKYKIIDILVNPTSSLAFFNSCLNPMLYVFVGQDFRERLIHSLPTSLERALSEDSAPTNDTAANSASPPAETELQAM
Procedure: (§3) Human peripheral blood monocytes (PBM) were isolated from Buffy coats (Transfusion Medicine Department, NIH Clinical Center, Bethesda, Md.) by using iso-osmotic Percoll gradient. The purity of cell preparations by morphology was >90%. PBM were further differentiated to macrophages by culturing the cells in RPMI 1640 medium containing 0.1% bovine serum albumin, 0.01M HEPES (pH 7.4), and 20 ng/ml monocyte colony stimulating factor (MCSF, Pepro Tech, Rocky Hill, N.J.). The cells were plated on 4-well chamber slides (Nalge Nunc International, Rochester, N.Y.) at a density of 1×10^5 cells/well. HEK293 cells genetically engineered to express FPRL1 cDNA (FPRL1/293 cells) were kindly provided by Dr. P. M. Murphy (National Institute of Allergy and Infectious Diseases, NIH). FPRL1/293 cells were suspended in DMEM supplemented with 10% FBS (Hyclone, Logan, Utah), 1 mM glutamine (Gibco-BRL, Grand Island, N.Y.), and 800 μg/ml geneticin (G418, Gibco-BRL). The cells were also plated on 4-well chamber slides at a density of 2×10^5 cells/well.
Fluorescence confocal microscope. Human macrophages or FPRL1/293 cells grown on chamber slides were treated with FPRL1 agonists for different periods at 37° C. The cells were fixed in 4% paraformaldehyde for 10 min at room temperature. Slides were washed with PBS and incubated with 5% normal goat serum (Sigma) in PBS, 0.05% Tween-20 (PBS-T-NGS), for 1 h to block nonspecific binding sites and for permeabilization. The anti-Aβ42 and anti-FPRL1 antibodies were applied and the slides were incubated for 1 h at room temperature. […] The slides were mounted with an anti-fade, water-based mounting medium with 4,6-diamidino-2-phenylindole (DAPI; Vector Lab, Burlingame, Calif.) and analyzed under a laser scanning confocal fluorescence microscope (Leica TCS-4D DMIRBE, Heidelberg, Germany). Excitation wavelengths of 365 (for DAPI), 488 (for FITC), and 568 (for rhodamine) nm were used to generate fluorescence emission in blue, green, and red respectively. […]

[6] = system: FPRL1/293 cells; assay: Apoptosis of FPRL1/293 cells (annexin-V-FITC/PI flow cytometry); format: cell-based, human; settings: 48 h; 10 μM Aβ42 or 1 μM W pep
Procedure: (§4) Detection of apoptosis. Apoptotic cells were detected by double labeling with annexin-V-FITC and propidium iodide (P1). Annexin-V binds to phosphatidylserine residues, which are translocated from the inner to the outer leaflet of the plasma membrane during the early stages of apoptosis (Koopman G. et al. 1994 Blood 84:1415-1420; Martin S. J. et al. 1995 J Exp Med 182:1545-1556). Necrotic cells were distinguished from annexin-V-positive cells by counterstaining with PI (final concentration 1 μg/ml) (Heidenreich S. et al. 1997 J Immunol 159:3178-3188; Mangan D. F. et al. 1991 J Immunol 146:1541-1546. Apoptotic cells were labeled by using an annexin-V kit according to manufacturer's instructions (Santa Cruz Biotechnology, Santa Cruz, Calif.) and analyzed by flow cytometry.

[7] = system: macrophages; assay: Apoptosis of macrophages (annexin-V-FITC/PI flow cytometry); format: cell-based, human; settings: 48 h; 10 μM Aβ42 or 1 μM W pep
Procedure: as §4

[8] = biological target: T1, FPRL1; assay: Chemotaxis of FPRL1/293 cells; format: cell-based
Excerpt: (§5) Reagents and cells. Aβ peptide (Aβ42) and the peptide with reversed sequence (Aβ42-1) were purchased from California Peptide Research (Napa, Calif.). All peptides were examined for endotoxin contamination and were negative at highest concentrations used in the study. Human peripheral blood monocytes were isolated from buffy coats (National Institutes of Health Clinical Center, Bethesda, Md.) enriched for mononuclear cells by using iso-osmotic Percoll gradient. The purity of the cell preparations was examined by morphology and was >90%. […]
as §2, with “Chemotaxis assays were performed using 48-well chemotaxis chambers (Deng X. et al. 1999 Blood 94:1165-1673).” left out, “Chemotaxis index, which represented the fold increase in the number of cells migrated in response to chemoattractants over the cell response to control medium, also was used.” left out

[9] = biological target: T1, FPRL1; assay: Aβ42/FPRL1 internalization in human macrophages, fluorescence confocal microscopy; format: cell-based; settings: 30 min incubation at 37° C.
Procedure: as §3, with “FPRL1/293 cells were suspended in DMEM supplemented with 10% FBS (Hyclone, Logan, Utah), 1 mM glutamine (Gibco-BRL, Grand Island, N.Y.), and 800 μg/ml geneticin (G418, Gibco-BRL). The cells were also plated on 4-well chamber slides at a density of 2×10^5 cells/well.” left out
Fluorescence confocal microscope. […] The slides were mounted with an anti-fade, water-based mounting medium with 4,6-diamidino-2-phenylindole (DAPI; Vector Lab, Burlingame, Calif.) and analyzed under a laser scanning confocal fluorescence microscope (Leica TCS-4D DMIRBE, Heidelberg, Germany). Excitation wavelengths of 365 (for DAPI), 488 (for FITC), and 568 (for rhodamine) nm were used to generate fluorescence emission in blue, green, and red respectively. […]

[10] = biological target: T2, FPR (Homo sapiens, UniProt P21462); assay: Ca2+ mobilization in ETFR cells (RBL-2H3 transfected with epitope-tagged FPR); format: cell-based
T2 construct: expressed in transfected cells; host or cells: RBL-2H3 (rat basophilic leukemia)
T2 sequence (P21462 1-350): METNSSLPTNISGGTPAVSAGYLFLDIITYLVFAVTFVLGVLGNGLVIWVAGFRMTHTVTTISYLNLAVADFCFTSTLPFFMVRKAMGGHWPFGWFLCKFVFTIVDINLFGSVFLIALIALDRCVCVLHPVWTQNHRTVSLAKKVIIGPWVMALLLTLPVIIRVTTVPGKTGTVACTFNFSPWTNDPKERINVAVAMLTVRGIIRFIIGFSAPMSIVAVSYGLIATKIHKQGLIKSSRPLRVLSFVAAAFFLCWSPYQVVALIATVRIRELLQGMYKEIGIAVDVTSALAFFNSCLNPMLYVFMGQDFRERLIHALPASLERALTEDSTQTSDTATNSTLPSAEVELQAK
Excerpt: as §5
as §2, with “Chemotaxis assays were performed using 48-well chemotaxis chambers (Deng X. et al. 1999 Blood 94:1165-1673).” left out, “Chemotaxis index, which represented the fold increase in the number of cells migrated in response to chemoattractants over the cell response to control medium, also was used.” left out

[11] = biological target: T1, FPRL1; assay: Ca2+ mobilization in FPRL1/293 cells; format: cell-based
Excerpt: as §5
as §2, with “Chemotaxis assays were performed using 48-well chemotaxis chambers (Deng X. et al. 1999 Blood 94:1165-1673).” left out, “Chemotaxis index, which represented the fold increase in the number of cells migrated in response to chemoattractants over the cell response to control medium, also was used.” left out

[12] = system: mouse neutrophils; assay: Superoxide production in mouse neutrophils (Diogenes chemiluminescence); format: cell-based
Procedure: The cell population was consistently composed of >90% neutrophils, as determined by light microscopy of DiffQuick-stained cytospins. Thus, hereafter we will refer to this cell preparation as neutrophils. Superoxide Production. […] Then a mixture of the superoxide-specific chemiluminescence indicator reagent Diogenes (National Diagnostics, Atlanta, Ga.) was added to the cells (50% of total reaction volume) with appropriate stimuli or vehicle control, and superoxide dismutase-inhibitable chemiluminescence was measured in a luminometer (Labsystems Luminoskan; Helsinki, Finland). […] For sequential stimulation experiments, 5×10^4 FPR −/− neutrophils were distributed into microcentrifuge tubes, and test substances were added. The mixture was then immediately transferred to a chemiluminescence plate. After incubation at 37° C. for 8 min (when fMLF was the first stimulus) or 9 min (when Aβ was the first stimulus), Diogenes reagent plus the final stimulus was added, and the activity was monitored for 10 min. […] Each condition was tested in triplicate, and the mean of the mean number (grand mean) of superoxide dismutase-inhibitable relative light units throughout the duration of the assay and the corresponding standard errors of grand means were calculated. […]

[13] = system: mouse neutrophils; settings: neutrophils from wild type mice, cited from earlier work

Compound: fucoidan
Ca2+ mobilization in human monocytes [1]: did not induce Ca^2+ mobilization
effect of prior stimulation on subsequent Ca2+ flux response of monocytes to Aβ42 (desensitization) [1]: did not affect monocyte response to subsequent stimulation with Aβ42

Compound: bacterial chemotactic peptide formyl-methionyl-leucyl-phenylalanine (fMLF)
superoxide generation in neutrophils, EC50 in FPR -/- against FPR +/+ cells [2]: 10 fold

Compound: Aβ42 “aged”: Aβ42 aged at 37° C., tested as the aggregated form
induction of monocyte migration [3]: lower potency than freshly dissolved peptide

time to maximal FPRL1 internalization ([5]; 37° C.): 15 to 30 min
time until FPRL1 is back on the cell surface after removal of agonist (receptor recycling) ([5]; agonist removed after 30 min): 2 h
Compound: WKYMVm [W pep]
Congo red positive fibrils ([4]; incubation 24 h to 48 h): did not form Congo red positive fibrils
apoptosis [6]: did not increase the apoptosis
apoptosis [7]: did not increase the apoptosis

Compound: COc1cc2c(c(OC)c1OC)-c1ccc(OC)c(=O)cc1[C@@H](NC(C)=O)CC2 [colchicine]
effect on Congo red staining of macrophages incubated with Aβ42 ([4]; 48 h incubation with Aβ42): not significantly stained with Congo red
inhibition of Aβ42-induced chemotaxis ([3]; monocytes): potent inhibitor of Aβ42-induced chemotaxis
effect on internalization of Aβ42/FPRL1 complexes ([5]; 30 min incubation at 37° C.): failed to internalize
inhibition of Aβ42-induced chemotaxis [8]: potent inhibitor of Aβ42-induced chemotaxis
effect on internalization of Aβ42/FPRL1 complexes [9]: failed to internalize

Ca2+ mobilization in ETFR cells [10]: stimulated Ca^2+ mobilization
Ca2+ mobilization in FPRL1/293 cells [11]: stimulated Ca^2+ mobilization
Compound: GlyBSA: Glycated bovine albumin, a reported ligand for RAGE
Ca2+ mobilization in human monocytes [1]: potent inducer of Ca^2+ mobilization
effect of prior stimulation on subsequent Ca2+ flux response of monocytes to Aβ42 (desensitization) [1]: able to cross-desensitize the cell response to Aβ42

difference of EC50 of superoxide generation, FPR −/− versus FPR+/+ neutrophils [12]: 10 fold
Compound: CSCC[C@H](NC=O)C(=O)N[C@@H](CC(C)C)C(=O)N[C@@H](Cc1ccccc1)C(=O)O [fMLF, formyl-methionyl-leucyl-phenylalanine]
effect of prior stimulation on subsequent Ca2+ flux response of monocytes to Aβ42 (desensitization) [1]: clearly inhibited the subsequent Ca^2+ flux response to Aβ42
effect of pretreatment on superoxide response to 10 μM Aβ ([12]; FPR −/− neutrophils, pretreated with 5 μM fMLF vs vehicle): markedly attenuated
desensitization of Aβ42-induced Ca2+ flux in FPRL1/293 cells ([11]; prior stimulation): desensitized
optimum of second peak of chemotaxis dose-response curve [13]: 10 µM
optimum of first peak of chemotaxis dose-response curve ([13]; peak due to FPR): ~500 nM
